Columns and labels:
hCA II = hCA II (Homo sapiens, UniProt P00918); experiment: stopped-flow CO2 hydrase assay, hCA II
Description: (§1) The newly synthesized 1,2,3-triazole linked triazino[5,6-b]indole-benzene sulfonamide hybrids (6a–6o) were evaluated for their carbonic anhydrase inhibitory activity against a panel of carbonic anhydrases, i.e., hCA I, hCA II, hCA IX, and hCA XIII, by the stopped-flow CO2 hydrase assay method. Highly purified CA isoforms were employed, for which the kinetic parameters for the physiologic reaction (CO2 hydration) were measured (see the Experimental section for details), monitoring the color change produced by the formation of H^+ ions (and bicarbonate). […] All the newly synthesized analogs were evaluated in vitro for their inhibitory activity against a panel of recombinant CA isoforms, i.e., hCA I, hCA II, hCA IX, and hCA XIII, obtained inhouse, using the stopped-flow CO2 hydrase assay.
(§2) An SX.18 V-R Applied Photophysics (Oxford, UK) stopped-flow instrument was used to assay the catalytic inhibition of various CA enzymes [32]. […] IC50-s values were calculated from the enzyme activity (as kcat, see Table 2) with respect to the inhibitor concentration.

hCA IX = hCA IX (Homo sapiens, UniProt Q16790); experiment: stopped-flow CO2 hydrase assay, hCA IX
Description: as §1, §2

hCA I = hCA I (Homo sapiens, UniProt P00915); experiment: stopped-flow CO2 hydrase assay, hCA I
Description: as §1, §2

hCA XIII = hCA XIII (Homo sapiens, UniProt Q8N1Q1); experiment: stopped-flow CO2 hydrase assay, hCA XIII
hCA XIII, sequence (Q8N1Q1 whole entry): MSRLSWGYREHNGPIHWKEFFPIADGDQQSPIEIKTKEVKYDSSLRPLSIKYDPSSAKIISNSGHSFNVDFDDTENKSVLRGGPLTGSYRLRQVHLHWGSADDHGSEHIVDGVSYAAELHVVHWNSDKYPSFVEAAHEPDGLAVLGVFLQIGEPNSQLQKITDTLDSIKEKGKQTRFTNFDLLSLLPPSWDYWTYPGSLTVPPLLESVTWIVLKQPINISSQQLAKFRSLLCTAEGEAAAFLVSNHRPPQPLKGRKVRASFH
Description: as §1, §2

hCA I, sequence (P00915 whole entry): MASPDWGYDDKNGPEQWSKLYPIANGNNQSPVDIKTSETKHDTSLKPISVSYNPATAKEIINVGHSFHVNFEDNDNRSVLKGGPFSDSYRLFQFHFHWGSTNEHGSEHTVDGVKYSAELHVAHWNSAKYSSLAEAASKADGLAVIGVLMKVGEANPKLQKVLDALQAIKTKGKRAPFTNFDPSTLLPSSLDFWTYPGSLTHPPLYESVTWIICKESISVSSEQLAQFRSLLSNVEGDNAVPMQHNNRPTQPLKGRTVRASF

SMILES | Ki (hCA II) | melting point | Ki (hCA IX) | Ki (hCA I) | Ki (hCA XIII)
Cn1c2ccccc2c2nnc(SCc3cn(-c4ccc(S(N)(=O)=O)cc4)nn3)nc21 [Compound 6a] | 65.5 nM | 235 to 240 °C | 286 nM | 910 nM | 77.8 nM
CCCn1c2ccccc2c2nnc(SCc3cn(-c4ccc(S(N)(=O)=O)cc4)nn3)nc21 [Compound 6c] | 88.7 nM | 261 to 263 °C | 219 nM | 3960 nM | 365 nM
C=CCn1c2ccccc2c2nnc(SCc3cn(-c4ccc(S(N)(=O)=O)cc4)nn3)nc21 [Compound 6e] | 41.7 nM | 230 to 232 °C | 41.1 nM | 536 nM | 627 nM
CCCn1c2ccc(F)cc2c2nnc(SCc3cn(-c4ccc(S(N)(=O)=O)cc4)nn3)nc21 [Compound 6h] | 683 nM | 240 to 242 °C | 119 nM | 764 nM | 1810 nM
C=CCn1c2ccc(F)cc2c2nnc(SCc3cn(-c4ccc(S(N)(=O)=O)cc4)nn3)nc21 [Compound 6j] | 73.7 nM | 245 to 247 °C | 402 nM | 4590 nM | 794 nM
Cn1c2ccc(Cl)cc2c2nnc(SCc3cn(-c4ccc(S(N)(=O)=O)cc4)nn3)nc21 [Compound 6k] | 253 nM | 243 to 248 °C | 331 nM | 5140 nM | 867 nM
CCn1c2ccc(Cl)cc2c2nnc(SCc3cn(-c4ccc(S(N)(=O)=O)cc4)nn3)nc21 [Compound 6l] | 185 nM | 252 to 256 °C | 150 nM | 2840 nM | 3980 nM
CCCn1c2ccc(Cl)cc2c2nnc(SCc3cn(-c4ccc(S(N)(=O)=O)cc4)nn3)nc21 [Compound 6m] | 61.7 nM | 257 to 262 °C | 204 nM | 6510 nM | 824 nM
C=CCn1c2ccc(Cl)cc2c2nnc(SCc3cn(-c4ccc(S(N)(=O)=O)cc4)nn3)nc21 [Compound 6o] | 97.1 nM | 261 to 264 °C | 325 nM | 694 nM | 2300 nM

Continued, values first:

Ki (hCA II) | melting point | Ki (hCA IX) | Ki (hCA I) | Ki (hCA XIII) | SMILES
72 nM | 202 to 204 °C | 172 nM | 642 nM | 69.8 nM | CCn1c2ccccc2c2nnc(SCc3cn(-c4ccc(S(N)(=O)=O)cc4)nn3)nc21 [Compound 6b]
20.9 nM | 213 to 215 °C | 37.8 nM | 315 nM | 65.8 nM | CC(C)n1c2ccccc2c2nnc(SCc3cn(-c4ccc(S(N)(=O)=O)cc4)nn3)nc21 [Compound 6d]
59.6 nM | 244 to 246 °C | 41.3 nM | 766 nM | 835 nM | Cn1c2ccc(F)cc2c2nnc(SCc3cn(-c4ccc(S(N)(=O)=O)cc4)nn3)nc21 [Compound 6f]
63.9 nM | 246 to 248 °C | 193 nM | 699 nM | 675 nM | CCn1c2ccc(F)cc2c2nnc(SCc3cn(-c4ccc(S(N)(=O)=O)cc4)nn3)nc21 [Compound 6g]
7.7 nM | 235 to 237 °C | 34.9 nM | 379 nM | 736 nM | CC(C)n1c2ccc(F)cc2c2nnc(SCc3cn(-c4ccc(S(N)(=O)=O)cc4)nn3)nc21 [Compound 6i]
179 nM | 263 to 265 °C | 321 nM | 572 nM | 91.3 nM | CC(C)n1c2ccc(Cl)cc2c2nnc(SCc3cn(-c4ccc(S(N)(=O)=O)cc4)nn3)nc21 [Compound 6n]
